In paper PMC11760775 (bioRxiv, 2025):
“Also recorded” adds a separate entry of the source.

Assays:
[1] = test system: mice; assay: Tail flick acute heat nociception assay, reversal of morphine analgesia; format: in vivo, mouse; conditions: morphine 20mg/kg i.p., 50°C water bath
[2] = test system: mice; assay: Conditioned place aversion in morphine tolerant mice; format: in vivo, mouse

| SMILES | Tail flick latency [1] | CPA score (Test - Pretest) [2] | Time spent in antagonist-paired (withdrawal precipitation) chamber ([2]; after conditioning versus pre-treatment) |
| --- | --- | --- | --- |
| CN1CC[C@]23c4c5ccc(O)c4O[C@H]2[C@@H](O)C=C[C@H]3[C@H]1C5 [morphine] | significantly increased |  |  |
| C=CCN1CC[C@]23c4c5ccc(O)c4O[C@H]2C(=O)CC[C@@]3(O)[C@H]1C5 [naloxone] |  | avoided the treatment compartment to a greater extent | marked decrease; also recorded: significantly less time |
